{"source": "ChEMBL document CHEMBL1158909", "about": "“A New Brominated Diphenyl Ether from a Philippine Dysidea Species” (J Nat Prod, 1990)", "key": {"Staphylococcus aureus": {"tested_on": "Staphylococcus aureus", "test": "Antimicrobial activity against Staphylococcus aureus", "assay_type": "functional, organism-based"}, "Bacillus subtilis": {"tested_on": "Bacillus subtilis", "test": "Antimicrobial activity against Bacillus subtilis", "assay_type": "functional, organism-based"}}, "note": "Calls of active or inactive are those of the source. The rule behind the calls is not given here.", "data": [{"smiles": "COc1c(Br)c(Br)c(Br)c(Br)c1Oc1ccc(Br)cc1Br", "values": [{"measurement": "Activity", "setting": "Staphylococcus aureus", "result": "inactive"}, {"measurement": "Activity", "setting": "Bacillus subtilis", "result": "inactive"}]}, {"smiles": "COc1c(Br)c(Br)c(Br)c(Br)c1Oc1ccccc1Br", "values": [{"measurement": "Activity", "setting": "Staphylococcus aureus", "result": "inactive"}, {"measurement": "Activity", "setting": "Bacillus subtilis", "result": "inactive"}]}, {"smiles": "Oc1c(Br)c(Br)c(Br)c(Br)c1Oc1ccccc1Br", "values": [{"measurement": "Activity", "setting": "Staphylococcus aureus", "result": "Active"}, {"measurement": "Activity", "setting": "Bacillus subtilis", "result": "Active"}]}, {"smiles": "Oc1c(Br)c(Br)c(Br)c(Br)c1Oc1ccc(Br)cc1Br", "values": [{"measurement": "Activity", "setting": "Staphylococcus aureus", "result": "Active"}, {"measurement": "Activity", "setting": "Bacillus subtilis", "result": "Active"}]}]}
